Laboratory results published in ChEMBL document CHEMBL1201862, “PubChem BioAssay data set” (2004).
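Interpolation was linear, between the two tested concentrations surrounding the appropriate level; five concentrations were tested over 48 hours in 96-well plates. Abbreviation: GI50, concentration required for 50% inhibition of growth.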 Calls of active or inactive are those of the source. Rule as the data show it: active = GI50 up to about 1.1 µM and inactive = higher.

Columns and labels:
Test in all cases: NCI anticancer screen, dose series, 48 h
786-0 = test system: 786-0
ACHN = test system: ACHN
CAKI-1 = test system: CAKI-1
HCT-116 = test system: HCT-116
HL-60 = test system: HL-60
HOP-92 = test system: HOP-92
M14 = test system: M14
MOLT-4 = test system: MOLT-4
RXF 393 = test system: RXF 393
SF-295 = test system: SF-295
SK-MEL-28 = test system: SK-MEL-28
SK-MEL-2 = test system: SK-MEL-2
SK-MEL-5 = test system: SK-MEL-5
TK-10 = test system: TK-10
SR = test system: SR

Row | SMILES | GI50 (786-0) | GI50 (ACHN) | GI50 (CAKI-1) | GI50 (HCT-116) | GI50 (HL-60) | GI50 (HOP-92) | GI50 (M14) | GI50 (MOLT-4) | GI50 (RXF 393) | GI50 (SF-295) | GI50 (SK-MEL-28) | GI50 (SK-MEL-2) | GI50 (SK-MEL-5) | GI50 (TK-10) | GI50 (SR)
1 | COC(=O)Cc1cc(=O)oc2c1C(=O)CCC2 | > 100 µM (inactive) | > 100 µM (inactive) | > 100 µM (inactive) | > 100 µM (inactive) | > 100 µM (inactive) | > 100 µM (inactive) | > 100 µM (inactive) | > 100 µM (inactive) | > 100 µM (inactive) | > 100 µM (inactive) | > 100 µM (inactive) | > 100 µM (inactive) | > 100 µM (inactive) | > 100 µM (inactive) | 
2 | CCN(N=O)C1C2(CCCC2)NC(=O)C12CCCC2 (configuration not stated) | > 100 µM (inactive) | > 100 µM (inactive) |  | > 100 µM (inactive) | > 100 µM (inactive) |  | > 100 µM (inactive) | > 100 µM (inactive) | > 100 µM (inactive) | > 100 µM (inactive) | > 100 µM (inactive) |  |  | > 100 µM (inactive) | > 100 µM (inactive)
3 | O=c1[nH]nc2ccccc2c1Cc1ccccc1 | > 100 µM (inactive) | > 100 µM (inactive) | > 100 µM (inactive) | > 100 µM (inactive) |  | > 100 µM (inactive) | > 100 µM (inactive) | > 100 µM (inactive) |  | > 100 µM (inactive) | > 100 µM (inactive) | > 100 µM (inactive) | > 100 µM (inactive) | > 100 µM (inactive) | 
4 | Nc1cc(O)nc(SC2=NC(N)CC(O)C2)n1 (configuration not stated) | > 100 µM (inactive) | > 100 µM (inactive) | > 100 µM (inactive) |  |  | > 100 µM (inactive) | > 100 µM (inactive) | > 100 µM (inactive) |  | > 100 µM (inactive) | > 100 µM (inactive) | > 100 µM (inactive) | > 100 µM (inactive) | > 100 µM (inactive) | > 100 µM (inactive)
5 | COC1(OC)C(N(C)C)=C(Cl)C(=O)/C1=C/C=O | > 100 µM (inactive) | 92 µM (inactive) | > 100 µM (inactive) | > 100 µM (inactive) | 77.4 µM (inactive) | 47 µM (inactive) | > 100 µM (inactive) | > 100 µM (inactive) |  | > 100 µM (inactive) | 53.8 µM (inactive) |  | > 100 µM (inactive) | > 100 µM (inactive) | 57.3 µM (inactive)
6 | CC1=C(C(=O)Nc2cccc(C(F)(F)F)c2)C(c2ccc(O)cc2)C(C(=O)Nc2cccc(C(F)(F)F)c2)=C(C)N1 | 16.7 µM (inactive) | 20.3 µM (inactive) | 11.6 µM (inactive) | 14.6 µM (inactive) | 15.1 µM (inactive) | 11.5 µM (inactive) | 14.9 µM (inactive) | 7.98 µM (inactive) | 10.1 µM (inactive) | 20.5 µM (inactive) | 18.7 µM (inactive) | 17.3 µM (inactive) | 16.9 µM (inactive) | 26.1 µM (inactive) | 
7 | CCCN(CCCN)/[N+]([O-])=N\O | > 100 µM (inactive) | > 100 µM (inactive) | > 100 µM (inactive) | > 100 µM (inactive) | > 100 µM (inactive) | > 100 µM (inactive) | > 100 µM (inactive) | > 100 µM (inactive) | > 100 µM (inactive) | > 100 µM (inactive) | > 100 µM (inactive) | > 100 µM (inactive) | > 100 µM (inactive) |  | > 100 µM (inactive)
8 | CC(=O)C1C(=O)N(C(C)C)C[C@@H]2CCC(=O)C[C@H]12 (some centres not stated) | > 100 µM (inactive) |  | > 100 µM (inactive) | > 100 µM (inactive) | > 100 µM (inactive) | > 100 µM (inactive) | > 100 µM (inactive) | > 100 µM (inactive) | > 100 µM (inactive) | > 100 µM (inactive) | > 100 µM (inactive) | > 100 µM (inactive) | > 100 µM (inactive) | > 100 µM (inactive) | 
9 | Nc1ccn(C2(CO)C=C(CO)C(O)C2O)c(=O)n1 (configuration not stated) | > 25.8 µM (inactive) | > 25.8 µM (inactive) | > 25.8 µM (inactive) | > 25.8 µM (inactive) | > 25.8 µM (inactive) |  | > 25.8 µM (inactive) | > 25.8 µM (inactive) | > 25.8 µM (inactive) |  | > 25.8 µM (inactive) | > 25.8 µM (inactive) | > 25.8 µM (inactive) | > 25.8 µM (inactive) | > 25.8 µM (inactive)
10 | COc1cc(O)c2c(c1)C(=O)C1=C(C2=O)C(O)C[C@@](C)(O)C1 (some centres not stated) | 3.08 µM (inactive) | 0.684 µM (active) | 1.87 µM (inactive) | 0.445 µM (active) | 0.451 µM (active) | 1.1 µM (active) | 0.871 µM (active) | 2.22 µM (inactive) | 1.32 µM (inactive) | 2.58 µM (inactive) | 1.5 µM (inactive) | 1.63 µM (inactive) |  | 1.98 µM (inactive) | 2.4 µM (inactive)
11 | O=C(O)c1ccccc1/N=N/c1ccc2oc(=O)c(C(=O)Nc3ccccc3)cc2c1 | 70.8 µM (inactive) | 50.2 µM (inactive) |  | 29.6 µM (inactive) | 24.4 µM (inactive) |  | 47.9 µM (inactive) | 32.8 µM (inactive) | 28.4 µM (inactive) | 50.2 µM (inactive) | 36.6 µM (inactive) |  | 28.4 µM (inactive) | 61.5 µM (inactive) | 
12 | Cc1c2n(c(=O)[nH]c1=O)C1OC(CO)C(O2)C1O (configuration not stated) | > 100 µM (inactive) | > 100 µM (inactive) | > 100 µM (inactive) | > 100 µM (inactive) | > 100 µM (inactive) | > 100 µM (inactive) |  | > 100 µM (inactive) | > 100 µM (inactive) | > 100 µM (inactive) | > 100 µM (inactive) | > 100 µM (inactive) | > 100 µM (inactive) | > 100 µM (inactive) | > 100 µM (inactive)
13 | COC1OC(C)C(O)CC1OS(=O)(=O)c1ccc(C)cc1 (configuration not stated) | > 100 µM (inactive) | > 100 µM (inactive) | > 100 µM (inactive) | > 100 µM (inactive) | > 100 µM (inactive) | > 100 µM (inactive) | > 100 µM (inactive) | > 100 µM (inactive) | > 100 µM (inactive) | > 100 µM (inactive) | > 100 µM (inactive) | > 100 µM (inactive) | > 100 µM (inactive) | > 100 µM (inactive) | 
14 | CC(C)C1CCC/C=C/C=C/C=C/C=C/C(OC2OC(C)C(O)C(N)C2O)CC2OC(O)(CC(O)CC(O)C(O)CCC(=O)O1)CC(O)C2C(=O)O (configuration not stated) | > 52.5 µM (inactive) | > 52.5 µM (inactive) | > 52.5 µM (inactive) | > 52.5 µM (inactive) | > 52.5 µM (inactive) | > 52.5 µM (inactive) | > 52.5 µM (inactive) | > 52.5 µM (inactive) |  | > 52.5 µM (inactive) | > 52.5 µM (inactive) |  | > 52.5 µM (inactive) |  | > 52.5 µM (inactive)
15 | Cc1c(C(=O)/C=C/c2c(Cl)cccc2Cl)c(=O)n(-c2ccccc2)n1C | 11.1 µM (inactive) | 25.8 µM (inactive) | 19 µM (inactive) | 8.53 µM (inactive) |  | 17.6 µM (inactive) |  | 5.38 µM (inactive) | 5.79 µM (inactive) | 26 µM (inactive) | 36.1 µM (inactive) | 26.1 µM (inactive) |  | 54.7 µM (inactive) | 
